Measured values as given in patent US6590107B1, “Synthesis, anti-human immunodeficiency virus, and anti-hepatitis B virus activities of 1,3-oxaselenolane nucleosides” (Emory University, priority 1997, dated 2003).
Like-named read-outs stand apart in the source and are kept apart here.

Legend:
[1] = test system: HIV-1 (strain LAV); type: cell-based
Description: The ability of nucleosides to inhibit HIV can be measured by various experimental techniques. The technique used herein, and described in detail below, measures the inhibition of viral replication in phytohemaggluinin (PHA) stimulated human peripheral blood mononuclear (PBM) cells infected with HIV-1 (strain LAV). The amount of virus produced is determined by measuring the virus-coded reverse transcriptase enzyme. The amount of enzyme produced is proportional to the amount of virus produced.
Three-day old phytohemagglutinin-stimulated PBM cells (10^6 cells/ml) from hepatitis B and HIV-1 seronegative healthy donors were infected with HIV-1 (strain LAV) at a concentration of about 100 times the 50% tissue culture infections dose (TICD 50) per ml and cultured in the presence and absence of various concentrations of antiviral compounds.
Approximately one hour after infection, the medium, with the compound to be tested (2 times the final concentration in medium) or without compound, was added to the flasks (5 ml; final volume 10 ml). AZT was used as a positive control.
The cells were exposed to the virus (about 2×10^5 dpm/ml, as determined by reverse transcriptase assay) and then placed in a CO2 incubator. HIV-1 (strain LAV) was obtained from the Center for Disease Control, Atlanta, Ga. The methods used for culturing the PBM cells, harvesting the virus and determining the reverse transcriptase activity were those described by McDougal, et al. (J. Immun. Meth. 76, 171-183, 1985) and Spira, et al. (J. Clin. Meth. 25, 97-99, 1987), except that fungizone was not included in the medium (see Schinazi, et al., Antimicrob. Agents Chemother. 32, 1784-1787 (1988); Id., 34:1061-1067 (1990)).
On day 6, the cells and supernatant were tnansferred to a 15 ml tube and centrifuged at about 900 g for 10 minutes. Five ml of supernatant was removed and the virus was concentrated by centrifugation at 40,000 rpm for 30 minutes (Beckman 70.1 Ti rotor). The solubilized virus pellet was processed for determination of the levels of reverse transcriptase. Results are expressed in dpm/ml of sampled supernatant. Virus from smaller volumes of supernatant (1 ml) can also be concentrated by centriguation prior to solubilization and determination of reverse transcriptase levels.
The median effective (EC50) concentration was determined by the median effect-method (Antimicrob. Agents Chemother. 30, 491-498 (1986)). Briefly, the percent inhibition of virus, as determined from measurements of reverse transcriptase, is plotted versus the micromolar concentration of compound.

[2] = test system: uninfected human PBM cells; test: Toxicity: growth of mitogen-stimulated uninfected human PBM cells; type: cell-based
Description: Mitogen stimulated uninfected human PBM cells (3.8×10^5 cells/ml) were cultured in the presence and absence of drug under similar conditions as those used for the antiviral assay described above. The cells were counted after 6 days using a hemacytometer and the trypan blue exclusion method, as described by Schinazi, et al., (Antimicrobial Agents and Chemotherapy, 22(3), 499 (1982)).

[3] = test system: xxBRU HIV-1; test: Anti-HIV activity in PBM cells, virus xxBRU; type: cell-based
[4] = test system: Cloned M184 HIV-1 (M184V); test: Anti-HIV activity in PBM cells infected with cloned M184V HIV-1 (mutation at codon 184 of reverse transcriptase gene); type: cell-based; details: for activity against the mutated virus: HIV with mutation at codon 184 in reverse transcriptase gene; for activity against the mutated virus / EC50 / EC90: PBM cells; for FI EC50 (fold increase): EC50 data from cloned virus/EC50 data from xxBRU; for FI EC90 (fold increase): EC90 M184V versus xxBRU; for EC50 / EC90: Virus M184V
[5] = test system: HIV; details: comparison with AZT; cited from earlier work
[6] = test system: CEM cells; test: Toxicity in CEM cells; type: cell-based, human
Text: Some of the 1,3-oxaselenolanyl nucleosides described herein can be used to treat abnormal cellular proliferation, including tumors and cancer. The extent of antiproliferative activity can be easily assessed by assaying the compound according to the procedure below in a CEM cell or other tumor or proliferative cell line assay. CEM cells are human lymphoma cells (a T-lymphoblastoid cell line that can be obtained from ATCC, Rockville, Md.). The toxicity of a compound to CEM cells provides useful information regarding the activity of the compound against tumors. The toxicity is measured as IC50 micromolar).
Drug solutions, including cycloheximide as a positive control, are plated in triplicate in 50 μl growth medium at 2 times the final concentration and allowed to equilibrate at 37° C. in a 5% CO2 incubator. […] Absorbance is read at 570 nm, blanking on the medium-only wells using a Biotek Biokinetics plate read (Biotek, Winooski, Vt.). Average percent inhibition of growth compared to the untreated control is calculated. IC50, IC90, slope and r value are calculated by the method of Chou and Talaly. Chou T-C, Talalay P. Quantitative analysis of dose-effect relationships: The combined effects of multiple drugs or enzyme inhibitors. […]

[7] = test system: Vero cells; test: Toxicity in Vero cells; type: cell-based
[8] = Table 5, anti-HIV activity in PBM cells
[9] = Table 5, anti-HIV activity in PBM cells, read-out: EC50
[10] = Table 5, cytotoxicity in PBM cells, read-out: IC50 PBM
[11] = PBM cells, HIV-1 strain LAV, estimated 10% error factor, read-out: Anti-HIV Activity in PBM Cells (EC50 μM)
[12] = mitogen-stimulated uninfected human PBM cells, read-out: Toxicity (IC50 μM) PMB

| SMILES | EC90 [1, 8] [µM] | EC50 [1, 9] [µM] | IC50 [2, 10] [µM] | EC50 [3] [µM] | EC90 [3] [µM] | FI EC50 (fold increase) [4] | FI EC90 (fold increase) [4] | EC50 [4] [µM] | EC90 [4] [µM] | other results |
| --- | --- | --- | --- | --- | --- | --- | --- | --- | --- | --- |
| Nc1ccn(C2C[Se]C(CO)O2)c(=O)n1 (racemic) [(±)-β-Se-ddC] | 209 | 2.69 | > 100 | 1.84 | 6.9 |  |  |  |  | activity against the mutated virus [4]: significant activity |
| Nc1nc(=O)n(C2C[Se]C(CO)O2)cc1F (racemic) [(±)-β-Se-FddC, 2-hydroxymethyl-4-(N-5′-flurocytosin-1′-yl)-1,3-oxaselenolane] | 16.4 | 5.55 | > 100 |  |  | 59 | 49 | 108 | 337 |  |
| Nc1nc(=O)n(C2C[Se]C(CO)O2)cc1F [(+)-β-Se-FddC, 1-β-D-(2′-hydroxymethyl-1′,3′-oxaselenolane-5′-yl)-5-fluorocytosine] | 164 | 41.9 | > 100 |  |  | >6 | >1 | > 50 | > 50 |  |
| Nc1nc(=O)n(C2C[Se]C(CO)O2)cc1F [(−)-β-Se-FddC, 1-β-L-(2′-Hydroxymethyl-1′,3′-oxaselenolane-5′-yl)-5-fluorocytosine] | 1.05 | 0.21 | > 100 |  |  | >455 | >53 | > 50 | > 50 |  |
| Nc1ccn([C@@H]2C[Se][C@H](CO)O2)c(=O)n1 [(+)-β-Se-ddC, (+)-(2R,5S)-β-D-2′,3′-dideoxy-3′-seleno-cytidine] | 677 | 3.39 | > 100 | 8.62 | 35.1 |  |  |  |  |  |
| Nc1ccn(C2CSC(CO)O2)c(=O)n1 (racemic) [BCH-189, 2-hydroxymethyl-5-(cytosin-1-yl)-1,3-oxathiolane] |  |  |  |  |  |  |  |  |  | activity against HIV relative to AZT [5]: approximately the same activity against HIV as AZT |
| Nc1ccn([C@H]2C[Se][C@@H](CO)O2)c(=O)n1 [(−)-β-Se-ddC, (−)-(2S,5R)-β-L-2′,3′-dideoxy-3′-seleno-cytidine] | 5.42 | 0.88 | > 100 | 0.11 | 0.95 |  |  |  |  | activity against the mutated virus [4]: significant activity |
| Nc1nc(=O)n(C2C[Se]C(CO)O2)cc1F (centres unmarked) [Compound 5-F-Cytosine] |  |  |  |  |  |  |  |  |  | EC50 [1, 11]: 0.07 µM; IC50 [2, 12]: > 100 µM; IC50 [6]: > 100 µM; IC50 [7]: > 100 µM |
| Nc1ccn(C2C[Se]C(CO)O2)c(=O)n1 (centres unmarked) |  |  |  |  |  |  |  |  |  | EC50 [1, 11]: 0.88 µM; IC50 [2, 12]: > 100 µM; IC50 [6]: > 100 µM; IC50 [7]: > 100 µM |
